According to patent US20120004285A1, “ERBB-3 (HER3)-SELECTIVE COMBINATION THERAPY” (ENZON PHARMACEUTICALS, INC., priority 2008, published 2012):
Oligonucleotides are written 5' to 3', each unit as a sugar letter and its base; * is a phosphorothioate linkage, no mark a phosphodiester; rarer units and linkages stand in square brackets, end groups in braces. Plain capitals give the bases only. l = locked nucleic acid (LNA); [5mC] = 5-methylcytosine; d = 2'-deoxy (DNA)

Key:
Format in all cases: cell-based, human
[1] = system: A549 cells; test: Cell proliferation assay (MTS), A549; conditions: FIG. 1A
Method: (§1) Cells were cultured in the medium as described below and maintained at 37° C. at 95% humidity and 5% CO2. Cells were routinely passaged 2-3 times weekly.
(§2) 15PC-3 (Santaris Pharma): The human prostate cancer cell line 15PC-3 was cultured in DMEM (ATCC)+10% fetal bovine serum (FBS)+2 mM Glutamax™ I+gentamicin (25 μg/ml). A549 (ATCC): The human lung cancer cell line A549 was cultured in F12K Medium (ATCC)+10% FBS+2 mM Glutamax™ I+Penicillin (100 u/ml)/Streptomycin (100 μg/ml). DU145 (ATCC): The human prostate cancer cell line DU145 was cultured in Eagle's Minimum Essential Medium (ATCC)+10% FBS+2 mM Glutamax™ I+Penicillin (100 u/ml)/Streptomycin (100 μg/ml). […]
(§3) . The treated cells were then subjected to proliferation assay by MTS and ErbB3 mRNA quantitation by qRT-PCR, respectively (see below). […]
(§4) The proliferation assay was carried out by using CellTiter 96® Aqueous One solution reagent (Promega, Cat# 358B) following the manufacturer's instructions. […] The absorbance was measured at […] with a reference of 650 nm using an ELISA reader (Molecular Devices). The background for the assay was measured from wells containing only medium and was subtracted from the signal from the wells containing cells. The absorbance at 490 nm (OD490 nm) is proportional to the viable cell number in culture.

[2] = system: H1993 cells; test: Cell proliferation assay (MTS), H1993; conditions: ON180 alone, Lipofectamine-2000 transfection, FIG. 2A, 2B, read-out: cell growth IC50
Method: (§5) Cells were routinely passaged 2-3 times weekly.
(§6) 15PC-3 (Santaris Pharma): The human prostate cancer cell line 15PC-3 was cultured in DMEM (ATCC)+10% fetal bovine serum (FBS)+2 mM Glutamax™ I+gentamicin (25 μg/ml). A549 (ATCC): The human lung cancer cell line A549 was cultured in F12K Medium (ATCC)+10% FBS+2 mM Glutamax™ I+Penicillin (100 u/ml)/Streptomycin (100 μg/ml). DU145 (ATCC): The human prostate cancer cell line DU145 was cultured in Eagle's Minimum Essential Medium (ATCC)+10% FBS+2 mM Glutamax™ I+Penicillin (100 u/ml)/Streptomycin (100 μg/ml). A431 (ATCC): The human epidermoid cancer cell line A431 was cultured in DMEM (ATCC)+10% fetal bovine serum (FBS)+2 mM Glutamax™ I+Penicillin (100 u/ml)/Streptomycin (100 μg/ml). SKBR-3 (ATCC): The human breast cancer cell line SKBR3 was cultured in McCoy's 5A Medium. Modified (ATCC)+10% FBS+2 mM Glutamax™ I+Penicillin (100 u/ml)/Streptomycin (100 μg/ml).
(§7) Cells were seeded in 6-well plates (NUNC™) and treated when 50-60% confluent. The transfection of cells by ON180 was performed as described by the manufacturer using serum-free OptiMEM® (Gibco™) and 5 μg/ml Lipofectamine™-2000. ONCONT served as a negative control. The treated cells were incubated at 37° C. for 4 hours and then washed with OptiMEM®, after which regular serum-containing medium was added.

[3] = system: 15PC3 cells; test: Cell proliferation assay (MTS), 15PC3; conditions: FIG. 3A
Method: as §1, §2, §3, §4

[4] = system: DU145 cells; test: Cell proliferation assay (MTS), DU145; conditions: FIG. 4A
Method: as §1, §2, §3, §4

[5] = system: SKBR3 cells; test: Cell proliferation assay (MTS), SKBR3; conditions: FIG. 5A
Method: as §1, §2, §3, §4

[6] = system: A431 cells; test: Cell proliferation assay (MTS), A431; conditions: ON180 alone, Lipofectamine-2000 transfection, FIG. 6A, 6B, read-out: cell growth IC50
Method: as §5, §6, §7

[7] = system: ErbB3 mRNA; test: ErbB3 mRNA level by qRT-PCR in A549 cells; conditions: ON180 alone, FIG. 1C, read-out: expression of ErbB3 mRNA IC50
Method: (§8) The cells were treated with either ON180 or an LNA-containing oligonucleotide having a scrambled base sequence as set forth in SEQ ID NO: 236 (hereinafter referred to as “ONCONT”) using the cationic liposome formulation Lipofectamine™-2000 (Invitrogen™) as transfection vehicle. Cells were seeded in 6-well plates (NUNC™) and treated when 50-60% confluent. The transfection of cells by ON180 was performed as described by the manufacturer using serum-free OptiMEM® (Gibco™) and 5 μg/ml Lipofectamine™-2000. ONCONT served as a negative control. The treated cells were incubated at 37° C. for 4 hours and then washed with OptiMEM®, after which regular serum-containing medium was added.
(§9) The treated cells were then subjected to proliferation assay by MTS and ErbB3 mRNA quantitation by qRT-PCR, respectively (see below). Each experiment was performed at least two times.
(§10) Total RNA was extracted from the treated cells as described above, using Qiagen RNeasy Plus Mini Kit (Cat# 74134). One-step qRT-PCR was used to examine ErbB3 mRNA levels in the cells by using the QuantiTect Probe RT-PCR kit (Cat#: 204443; Qiagen) according to the manufacturer's instructions. The sequences for the primers and probes were as follows: […]
(§11) The qRT-PCR was performed on the Applied Biosystems 7500 Fast Real-Time PCR System using 120 ng of total RNA sample. GAPDH mRNA served as an internal control.

[8] = system: ErbB3 mRNA; test: ErbB3 mRNA level by qRT-PCR in H1993 cells; conditions: ON180 alone, FIG. 2C
Method: as §8, §9, §10, §11

[9] = system: ErbB3 mRNA; test: ErbB3 mRNA level by qRT-PCR in 15PC3 cells; conditions: ON180 alone, FIG. 3C
Method: as §8, §9, §10, §11

[10] = system: ErbB3 mRNA; test: ErbB3 mRNA level by qRT-PCR in DU145 cells; conditions: ON180 alone, FIG. 4C
Method: as §8, §9, §10, §11

[11] = system: ErbB3 mRNA; test: ErbB3 mRNA level by qRT-PCR in SKBR3 cells; conditions: ON180 alone, FIG. 5C
Method: as §8, §9, §10, §11

[12] = system: ErbB3 mRNA; test: ErbB3 mRNA level by qRT-PCR in A431 cells; conditions: ON180 alone, FIG. 6C
Method: as §8, §9, §10, §11

Molecule	IC50 ([1]; ON180 alone, Lipofectamine-2000 transfection, 1B, read-out: cell growth IC50) [nM]	IC50 [2] [nM]	IC50 ([3]; ON180 alone, Lipofectamine-2000 transfection, 3B, read-out: cell growth IC50) [nM]	IC50 ([4]; ON180 alone, Lipofectamine-2000 transfection, 4B, read-out: cell growth IC50) [nM]	IC50 ([5]; ON180 alone, Lipofectamine-2000 transfection, 5B, read-out: cell growth IC50) [nM]	IC50 [6] [nM]	IC50 [7] [nM]	expression of ErbB3 mRNA [8]	ErbB3 mRNA [9]	expression of ErbB3 mRNA [10]	expression of ErbB3 mRNA [11]	ErbB3 mRNA [12]	effect of gefitinib alone on proliferation ([1]; gefitinib 40 μM, 48 hours)	effect of gefitinib on proliferation ([3]; gefitinib 20 μM, 48 hours)	effect of gefitinib on proliferation ([4]; gefitinib 40 μM, 48 hours)	sensitivity of cells to gefitinib ([5]; gefitinib alone)
5′-TsAsGscscstsgstscsascststs^MeCsTs^MeC-3′ (lT*lA*lG*dC*dC*dT*dG*dT*dC*dA*dC*dT*dT*l[5mC]*lT*l[5mC]) [ON180]	< 5	1	< 2	< 5	< 5	< 1	< 2	potently inhibited	potently inhibited	effectively inhibited	effectively inhibited	effectively inhibited				
COc1cc2ncnc(Nc3ccc(F)c(Cl)c3)c2cc1OCCCN1CCOCC1 [gefitinib, reference compound]													did not affect proliferation	did not affect proliferation	did not affect proliferation	sensitive
